# Patent US9375004B2 (Bayer Intellectual Property GmbH, priority 2010, dated 2016)
# Values joined by “and” are separate entries in the source; they are usually repeats but may differ in a detail not shown here. Equal values may be shown once. Read-outs that look alike come from different tables or passages of the source.
# How the values were obtained:
# [1] = test system: Uromyces appendiculatus; conditions: 100 ppm, beans, preventive, evaluated 10 days after inoculation
# [2] = test system: Botrytis cinerea; experiment: Botrytis test (beans)/preventive; conditions: 100 ppm, preventive, lesion size 2 days after inoculation
# Method: Botrytis Test (Beans)/Preventive
# Solvent: 24.5 parts by weight of acetone • 24.5 parts by weight of N,N-dimethylformamide
# (§1) Emulsifier: 1 part by weight of alkylaryl polyglycol ether
# After the spray coating has dried on, 2 small pieces of agar covered with growth of Botrytis cinerea are placed on each leaf. The inoculated plants are placed in a darkened chamber at 20° C. and a relative atmospheric humidity of 100%.
# 2 days after the inoculation, the size of the lesions on the leaves is evaluated.
# [3] = test system: Pyricularia oryzae; format: in vivo
# [4] = logP by HPLC on reversed-phase column (EEC Directive 79/831 Annex V.A8); conditions: HPLC on reversed-phase column (C 18), EEC Directive 79/831 Annex V.A8
# [5] = test system: Phakopsora pachyrhizi; experiment: Phakopsora test (soybeans)/protective; format: in vivo; conditions: 250 ppm, protective, evaluated 11 days after inoculation
# [6] = test system: Puccinia triticina; experiment: Puccinia triticina-test (wheat)/preventive; format: in vivo; conditions: 500 ppm, preventive, evaluated 8 days after inoculation
# [7] = test system: Sphaerotheca fuliginea; experiment: Sphaerotheca test (cucumber)/preventive; format: in vivo; conditions: 500 ppm, preventive, evaluated 7 days after inoculation
# [8] = test system: Rhizoctonia solani; experiment: Rhizoctonia test (rice)/protective; format: in vivo; conditions: 250 ppm, protective, evaluated 4 days after inoculation
# Method: Rhizoctonia Test (Rice)/Protective
# Solvent: 28.5 parts by weight of acetone
# Emulsifier: 1.5 part by weight of alkylaryl polyglycol ether
# 1 day after the treatment, the plants are inoculated with hyphae of Rhizoctonia solani.
# Evaluation is carried out 4 days after the inoculation.
# [9] = test system: Septoria tritici; experiment: Septoria tritici-test (wheat)/preventive; format: in vivo; conditions: 500 ppm, preventive, evaluated 21 days after inoculation
# [10] = test system: Pyrenophora teres; experiment: Pyrenophora teres-test (barley)/preventive; format: in vivo; conditions: 500 ppm, preventive, evaluated 8 days after inoculation
# [11] = test system: Alternaria solani; experiment: Alternaria test (tomato)/preventive; format: in vivo; conditions: 500 ppm, preventive, evaluated 7 days after inoculation
# [12] = test system: Venturia inaequalis; experiment: Venturia test (apples)/preventive; conditions: 100 ppm, preventive, evaluated 10 days after inoculation
# [13] = test system: Cochliobolus miyabeanus; experiment: Cochliobolus test (rice)/protective; format: in vivo; conditions: 250 ppm, protective, evaluated 4 days after inoculation
# [14] = test system: Fusarium nivale (var. majus); experiment: Fusarium nivale (var. majus)-test (wheat)/preventive; conditions: preventive, evaluated 5 days after inoculation
# Method: Fusarium Nivale (Var. Majus)-Test (Wheat)/Preventive
# Solvent: 49 parts by weight of N,N-dimethylacetamide
# as §1
# After the spray coating has been dried, the plants are slightly injured by using a sandblast and afterwards they are sprayed with a conidia suspension of Fusarium nivale (var. majus).
# The plants are placed in the greenhouse under a translucent incubation cabinet at a temperature of approximately 10° C. and a relative atmospheric humidity of approximately 100%.
# The test is evaluated 5 days after the inoculation.
# [15] = physchem
SMILES,Efficacy [1] [%],Efficacy [2] [%],Efficacy ([3]; in vivo),logP [4],Efficacy [5] [%],Efficacy [6] [%],Efficacy [7] [%],Efficacy [8] [%],Efficacy [9] [%],Efficacy [10] [%],Efficacy [11] [%],Efficacy [12] [%],Efficacy [13] [%],Efficacy ([14]; 500 ppm) [%],other results
Cn1nc(C(F)F)c(C(=O)Nc2ccccc2C2CC2C2CC2)c1F (stereo not drawn) [Example 46],100,99,96%,3.67,85,100,94,97,89,100,100,100,–,–,–
Cn1nc(C(F)F)c(C(=O)Nc2ccc(F)cc2-c2ccc(Cl)cc2)c1Cl [Example 83],100,100,–,3.76,94,–,100,–,–,–,94,100,–,–,–
CC(CC(C)(C)C)c1ccccc1NC(=O)c1c(C(F)F)nn(C)c1F (stereo not drawn) [Example 21],100,100,85%,4.04,98,100,95,100,100,95,95,100,85,–,–
Cn1nc(C(F)F)c(C(=O)Nc2ccccc2-c2ccc(C(F)(F)F)c(F)c2)c1Cl [Example 148],100,100,80%,3.77,98,100,–,100,100,100,–,100,95,86,–
Cn1nc(C(F)F)c(C(=O)Nc2ccccc2C2CC3CCC2C3)c1F (stereo not drawn) [Example 51],100,100,–,3.78,93,71,96,–,80,100,95,100,–,–,–
Cn1nc(C(F)F)c(C(=O)Nc2ccc(F)cc2-c2ccc(Cl)cc2)c1F [Example 84],99,99,–,3.46,80,–,–,–,–,–,94,100,–,–,–
CC(C)C1C2CCC1c1c(NC(=O)c3c(C(F)F)nn(C)c3F)cccc12 (stereo not drawn) [Example 66],100,99,100%,4.41,98,100,100,100,100,100,100,100,93,86,Efficacy ([14]; 250 ppm): 93%
Cn1nc(C(F)F)c(C(=O)Nc2ccc(F)cc2-c2ccc(Cl)c(Cl)c2)c1Cl [Example 117],100,99,–,4.04,98,100,–,–,–,100,–,100,–,–,–
Cn1nc(C(F)F)c(C(=O)Nc2ccccc2CCC(C)(C)C)c1Cl [Example 14],100,99,–,–,98,100,–,100,93,100,–,100,90,100,"Efficacy ([3]; 250 ppm, rice, protective, evaluated 5 days after inoculation): 98%; chromatographic logP ([15]; logP (acidic), HPLC, 0.1% aqueous formic acid/acetonitrile): 4.01; chromatographic logP ([15]; logP, HPLC on reversed-phase column (C 18), EEC Directive 79/831 Annex V.A8): 4.1"
CC1CC(C)(C)c2cccc(NC(=O)c3c(C(F)F)nn(C)c3F)c21 (racemic) [Example 64],100,95,–,–,97,100,100,–,100,100,95,99,–,75,–
Cn1nc(C(F)F)c(C(=O)Nc2ccccc2CCC(C)(C)C)c1F [Example 13],100,94,97%,3.83,98,100,100,100,100,100,100,100,85,100,–
Cn1nc(C(F)F)c(C(=O)Nc2ccc(F)cc2-c2ccc(Cl)c(Cl)c2)c1F [Example 116],100,100,97% and 90%,3.89,85,100,98,97,100,100,100,100,90,–,protection ([3]; in vivo): at least 90%
"Cn1nc(C(F)F)c(C(=O)Nc2ccccc2C2CC2C2CC2)c1Cl (single isomer, unassigned) [Example 47]",100,–,90%,3.76,98,100,–,100,–,100,–,100,–,–,"Efficacy ([14]; 500 ppm, listed as 47 from this invention): 86%"
"Cn1nc(C(F)F)c(C(=O)Nc2ccccc2C2CC2C2CC2)c1Cl (single isomer, unassigned) [Example 48]",100,–,–,3.85,99,100,–,98,–,86,–,100,–,–,"Efficacy ([14]; 500 ppm, listed as 48 from this invention): 86%"
